Patent US20080269242A1, “Crystalline Salts of 7-[4-(4-Naphthalen-1-Yl-Piperazin-1-Yl)-Butoxy]-3,4-Dihydro-1H-[1,8]Naphthyridine-2-One” (priority 2005, published 2008)

Tests used:
[1] = tested on: spontaneous locomotor activity (SLMA); experiment: Spontaneous locomotor activity (SLMA) in rats; assay type: in vivo, Male Sprague-Dawley rats; conditions: rat; for SLMA, Mean centimeters traveled in 1 hour±SEM: 60-minute absorption period, recorded 1 hour, vehicle 4066±297
Excerpt: Effects of 7-[4-(4-naphthalen-1-yl-piperazin-1-yl)-butoxy]-3,4-dihydro-1H-[1,8]naphthyridin-2-one on spontaneous locomotors activity (SLMA) was investigated in an in vivo animal model, which is predictive of antipsychotic efficacy.
Method: Male Sprague-Dawley rats were used in studies where SLMA was quantified using an activity monitor in a sound-attenuated chamber. Rats were randomly assigned to various groups (including a vehicle control group). 7-[4-(4naphthalen-1-yl-piperazin-1-yl)-butoxy]-3,4-dihydro-1H-[1,8]naphthyridin-2-one at doses of 0.1 mg/kg, 0.3 mg/kg, 1 mg/kg, 3 mg/kg, and 10 mg/kg, or vehicle were administered orally. Following a 60-minute absorption period, each rat was placed into the test chamber, and SLMA was recorded for a 1-hour time-period. SLMA is expressed as centimeters traveled. Statistical analysis was performed using a one-way ANOVA followed by a post hoc Dunnett's test.

[2] = biological target: D2 receptors (Homo sapiens, UniProt P14416); conditions: background statement, compound of WO2005/019215; cited from earlier work
Chain of D2 receptors (P14416 whole entry, species assumed): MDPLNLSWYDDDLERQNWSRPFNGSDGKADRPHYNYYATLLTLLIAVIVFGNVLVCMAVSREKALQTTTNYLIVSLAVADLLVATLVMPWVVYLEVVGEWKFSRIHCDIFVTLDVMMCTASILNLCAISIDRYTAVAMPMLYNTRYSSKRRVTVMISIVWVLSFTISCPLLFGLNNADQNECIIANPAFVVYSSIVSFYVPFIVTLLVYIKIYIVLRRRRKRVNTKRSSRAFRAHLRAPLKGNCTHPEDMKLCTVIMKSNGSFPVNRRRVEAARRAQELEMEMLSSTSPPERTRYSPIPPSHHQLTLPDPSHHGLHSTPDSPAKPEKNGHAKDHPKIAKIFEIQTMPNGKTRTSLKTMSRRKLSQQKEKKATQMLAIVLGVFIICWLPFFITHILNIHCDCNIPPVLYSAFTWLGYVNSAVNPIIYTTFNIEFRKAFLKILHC

[3] = biological target: dopamine D2 receptor (Homo sapiens, UniProt P14416); conditions: background statement, compound of WO2005/019215; cited from earlier work
Chain of dopamine D2 receptor (P14416 whole entry, species assumed): as above

[4] = Solid-state stability study, open dish; assay type: physicochemical; conditions: for solid-state stability (degradation): open dish, 6 month
[5] = Conversion of crystalline form on standing; assay type: physicochemical; conditions: ambient temperatures

## O=C1CCc2ccc(OCCCCN3CCN(c4cccc5ccccc45)CC3)nc2N1 [7-[4-(4-naphthalen-1-yl-piperazin-1-yl)-butoxy]-3,4-dihydro-1H-[1,8]naphthyridin-2-one]
[1]; 0.1 mg/kg orally, not statistically different from vehicle
  SLMA, Mean centimeters traveled in 1 hour±SEM: 3998±133 centimeters
[1]; 0.3 mg/kg orally, p<0.05 vs vehicle
  SLMA, Mean centimeters traveled in 1 hour±SEM: 2510±185 centimeters
[1]; 1 mg/kg orally, p<0.05 vs vehicle
  SLMA, Mean centimeters traveled in 1 hour±SEM: 1977±173 centimeters
[1]; 3 mg/kg orally, p<0.05 vs vehicle
  SLMA, Mean centimeters traveled in 1 hour±SEM: 1742±206 centimeters
[1]; 10 mg/kg orally, p<0.05 vs vehicle
  SLMA, Mean centimeters traveled in 1 hour±SEM: 1068±208 centimeters
[1]; oral, 0.1-10 mg/kg
  effect on SLMA (in words): dose-dependent reduction
[1]; oral, estimated
  minimum effective dose (reduction of SLMA): 0.3 mg/kg
[2]
  activity at D2 receptors (in words): partial agonist
[3]
  binding to the dopamine D2 receptor (in words): binds

## O=C1CCc2ccc(OCCCCN3CCN(c4cccc5ccccc45)CC3)nc2N1.O=P(O)(O)O [Form A, 7-[4-(4-naphthalen-1-yl-piperazin-1-yl)-butoxy]-3,4-dihydro-1H-[1,8]naphthyridin-2-one mono-phosphate]
[4]; 25° C./60% relative humidity
  solid-state stability (degradation): little or no degradation
[4]; 30° C./70% relative humidity
  solid-state stability (degradation): little or no degradation
[4]; 40° C./75% relative humidity
  solid-state stability (degradation): little or no degradation
[4]; Form A compared with Form B
  relative stability of crystalline forms: more stable than Form B

## O=C1CCc2ccc(OCCCCN3CCN(c4cccc5ccccc45)CC3)nc2N1.O=P(O)(O)O [Form B, 7-[4-(4-naphthalen-1-yl-piperazin-1-yl)-butoxy]-3,4-dihydro-1H-[1,8]naphthyridin-2-one mono-phosphate]
[5]
  form conversion on standing: convert to Form A
